In US9802974B2, “Synthesis of diverse glycosylphosphatidylinositol glycans from Toxoplasma gondii and their application as vaccines and diagnostics” (Max-Planck-Gesellschaft zur Förderung der Wissenschaften …, priority 2012, dated 2017):
Entries after “also recorded” stand apart in the source; their conditions may differ.

test system: serum antibodies raised against the conjugate consisting of compound 3 covalently linked to CRM197; test: Carbohydrate microarray analysis of serum from Balb/c mice immunized with the conjugate of compound 3 and CRM197; type: binding; conditions: pooled serum of Balb/c mice immunized with compound 3-CRM197 conjugate; compounds printed at 1 mM; FIG. 3
Description: FIG. 3: left side: Analysis of pooled serum that was obtained 4 weeks after 1st immunization of Balb/c mice with a conjugate consisting of CRM197 covalently linked to compound 3; right side: Printing pattern: all compounds were printed in a 3×3 pattern and in a concentration of 1 mM; left, upper corner: compound 5; left lower corner: compound 3; right, upper corner: compound 4; right lower corner: (α-D-Mannopyranosyl)-(1→2)-(α-D-mannopyranosyl)-(1→2)-(α-D-mannopyranosyl)-(1→6)-(α-D-mannopyranosyl)-(1→4)-(2-amino-2-deoxy-α-D-glucopyranosyl)-(1→6)-1-O-(6-thiohexyl phosphono)-D-myo-inositol (Chem. Eur. J. 2005, 11, 2493).
Three female BALB/c mice were immunized s.c. with 35 μg conjugate, prepared as described in example 11a, in Freund's complete adjuvant. […] After the second immunization, serum was collected and the antibody titer (total IgG) was determined by microarray six weeks after the first immunization.

| Compound | binding of serum antibodies to the glycan printed on the microarray |
| --- | --- |
| CC(=O)NC1C(O)[C@@H](O)C(CO)O[C@H]1O[C@@H]1C(CO[C@H]2OC(CO)[C@@H](O)C(O)C2O[C@H]2OC(COP(=O)(O)OCCN)[C@@H](O)C(O)C2O)O[C@H](O[C@@H]2C(CO)O[C@H](O[C@@H]3C(O)C(O)[C@@H](O)C(O)C3OP(=O)(O)OCCCCCCS)C(N)C2O)C(O)C1O (stereo partly drawn) [compound 3, 6-O-(aminoethylphosphono)-α-D-mannopyranosyl-(1→2)-α-D-mannopyranosyl-(1→6)-4-O-(2-deoxy-2-acetamido-β-D-galactopyranosyl)-α-D-mannopyranosyl-(1→4)-2-amino-2-deoxy-α-D-glucopyranosyl-(1→6)-1-O-(thiohexylphosphono)-D-myo-inositol] | specifically evoke a binding; also recorded: bound |
| CC(=O)NC1C(O)[C@@H](O)C(CO)O[C@H]1O[C@@H]1C(CO[C@H]2OC(CO)[C@@H](O)C(O)C2O[C@H]2OC(COP(=O)(O)OCCN)[C@@H](O)C(O)C2O)O[C@H](O[C@@H]2C(CO)O[C@H](O[C@@H]3C(O)C(O)[C@@H](O)C(O)C3OP(=O)(O)OCCCCCCS)C(N)C2O)C(OP(=O)(O)OCCN)C1O (stereo partly drawn) [compound 5, 6-O-(aminoethylphosphono)-α-D-mannopyranosyl-(1→2)-α-D-mannopyranosyl-(1→6)-2-O-(aminoethylphosphono)-4-O-(2-deoxy-2-acetamido-β-D-galactopyranosyl)-α-D-mannopyranosyl-(1→4)-2-amino-2-deoxy-α-D-glucopyranosyl-(1→6)-1-O-(thiohexylphosphono)-D-myo-inositol] | not and did not show cross reactivity |
| 6-O-(aminoethyl phosphono)-α-D-mannopyranosyl-(1→2)-α-D-mannopyranosyl-(1→6)-4-O-(α-D-glucopyranosyl-(1→4)-2-deoxy-2-acetamido-β-D-galactopyranosyl)-α-D-manno-pyranosyl-(1→4)-2-amino-2-deoxy-α-D-glucopyranosyl-(1→6)-1-O-(thiohexyl phosphono)-D-myo-inositol [compound 4] | not |
| N[C@H]1[C@@H](O[C@@H]2[C@@H](O)[C@H](O)[C@@H](O)[C@@H](O)[C@H]2OP(=O)(O)OCCCCCCS)O[C@H](CO)[C@@H](O[C@H]2O[C@H](CO[C@H]3O[C@H](CO)[C@@H](O)[C@H](O)[C@@H]3O[C@H]3O[C@H](CO)[C@@H](O)[C@H](O)[C@@H]3O[C@H]3O[C@H](CO)[C@@H](O)[C@H](O)[C@@H]3O)[C@@H](O)[C@H](O)[C@@H]2O)[C@@H]1O [(α-D-Mannopyranosyl)-(1→2)-(α-D-mannopyranosyl)-(1→2)-(α-D-mannopyranosyl)-(1→6)-(α-D-mannopyranosyl)-(1→4)-(2-amino-2-deoxy-α-D-glucopyranosyl)-(1→6)-1-O-(6-thiohexylphosphono)-D-myo-inositol, reference compound] | not |
